Measured values published in US10195189B2, “2-phenethenyltetrahydro isoquinolines useful as anti-HIV compounds” (priority 2014, dated 2019).

Test system: HIV-1 NL4-3 viral clone expressing Renilla luciferase
Assay: microbe, parasite or virus in culture
Assay type: cell-based
Conditions: Human immunodeficiency virus 1, NL43, MT2, 96 h
Method: Protocol for MT-2 Spread Assay
The present assay was used to screen candidate antiviral compounds by quantification of virus spread and production over several rounds of infection in vitro. MT-2, a HIV-1 permissive human T-cell line, was seeded in microtiter plates and was simultaneously treated with serially diluted compound and inoculated with a HIV-1 NL4-3 viral clone engineered to express Renilla luciferase in place of Net Following treatment, the culture was incubated for 96 hours. After the incubation, media was collected and used to estimate relative infectivity on the indicator cell line, TZM-bl. Additionally, viral spread was quantified by measuring luciferase activity via a commercially available luciferase substrate. In parallel, MT-2 cells were seeded and inoculated with mock virus in the presence of serially diluted compound. Compound toxicity was quantified 96 hours after treatment with AlamarBlue.
MT-2 (NIH Aids reagent program 237) cells were grown and maintained in an incubator at 37° C. with 5% CO2 using a basal medium of RPMI-1640 supplemented with 10% FBS. Cells were seeded in 100 μl at 2×10^4 cells/well in white walled 96-well microtiter plates. Candidate compounds were 3-fold serially diluted in the appropriate solvent. Solvent without compound was used as a no drug reference. Cells were inoculated at a multiplicity of 0.027 with an HIV-1 NL4-3 virus stock engineered to express Renilla luciferase in place of Net Diluted virus stock was first added to serially diluted compound. Compound and virus were delivered to cells in an equal volume (100 μl) and treated cultures were returned to the incubator for 96 hours. In parallel, plates for cytotoxicity estimates were prepared in the same way except cells were plated in clear walled 96-well microtiter plates and were mock infected.
At 96 hours post infection, 100 μl virus containing culture supernatant was collected from the treated and infected cultures and serially diluted in DMEM supplemented with 10% FBS, 1% sodium pyruvate, and 20 μg/ml DEAE dextran. One day prior, TZM-bl (ATCC PTA-5659) were cultured in basal medium of DMEM supplemented with 10% FBS and 1% sodium pyruvate and seeded at 7.5×10^3 cells/well in black walled 96-well microtiter plates. Diluted virus containing culture supernatant was transferred to TZM-bl cultures and incubated for 48 hours at 37° C. with 5% CO2. Infected TZM-bl cultures were fixed for 5 minutes with a 1% formaldehyde/0.2% gluteraldehyde/PBS solution then washed three times with PBS. Fixed cultures were incubated at 37° C. for 25 minutes with a 200 μg/ml MUG (4-Methylumbelliferyl β-D-[…])/DMEM solution. The reaction was stopped with an equal volume of 1M sodium carbonate and read at 360, 449 nm on fluorescence plate reader (Biotek).
At 96 hours post infection, 100 μl of culture supernatant was removed from the treated and infected cultures and EnduRen live cell substrate (Promega) was added at a final concentration 1.3 μg/ml. Cells were incubated for 1.5 hours at 37° C. with 5% CO2 then read on a luminescence plate reader (Biotek).
For all assays, data was imported into Accelrys Assay Explorer 3.3. In Assay Explorer, % inhibition (antiviral or cytotoxicity) was calculated using the solvent control as a reference by the following equation: 1−(SignalCompound/SignalReference). The % Inhibition and compound concentration data was fitted using the following 4-parameter logistic model (Assay Explorer model 42):
[formula] where X is compound concentration, Y is % inhibition, D is the maximum % Inhibition (constrained to 100%), C is IC50 value or inflection point, B is the hill slope, and A is the minimum % inhibition (constrained to 0%). The IC50 value is reported as the EC50 or CC50 depending on the assay endpoint. EC50 represents the effective concentration at which virus replication is inhibited by 50 percent. CC50 represents the concentration that results in the death of 50 percent of the host cells. […]

`COc1cc2c(cc1OCc1ccccc1)CCNC2/C=C/c1cc(OC(F)(F)F)ccc1C` (stereo not drawn) [BH, 6-Benzyloxy-7-methoxy-1-[(E)-2-[2-methyl-5-(trifluoromethoxy)phenyl]vinyl]-1,2,3,4-tetrahydroisoquinoline] and `COc1cc2c(cc1OCc1ccccc1)CCNC2/C=C/c1cccc(C(F)(F)F)c1` (stereo not drawn) [DB, (E)-6-(benzyloxy)-7-methoxy-1-(3-(trifluoromethyl)styryl)-1,2,3,4-tetrahydroisoquinolin] are within 1.5-fold of each other in EC50: 1930 nM for the first, 2670 nM for the second.

Going from `COc1cc2c(cc1OC)C(/C=C/c1cc(OCc3ccccc3)c(OC)cc1C)NCC2` (stereo not drawn) [Example C, 1-[(E)-2-(5-Benzyloxy-4-methoxy-2-methyl-phenyl)vinyl]-6,7-dimethoxy-1,2,3,4-tetrahydroisoquinoline] to `COc1cc(F)c(/C=C/C2NCCc3cc(OCc4ccccc4)c(OC)cc32)cc1OC` (stereo not drawn) [BP, 6-Benzyloxy-1-[(E)-2-(2-fluoro-4,5-dimethoxy-phenyl)vinyl]-7-methoxy-1,2,3,4-tetrahydroisoquinoline], the EC50 falls from 9760 nM to 2030 nM (4.8-fold). The second is the more potent here.

First: CCCCN1CCc2cc(OC)c(OCc3ccccc3)cc2C1/C=C/c1ccc(OCc2ccccc2)c(OC)c1 (stereo not drawn) [Example D, 7-Benzyloxy-1-[(E)-2-(4-benzyloxy-3-methoxy-phenyl)vinyl]-2-butyl-6-methoxy-3,4-dihydro-1H-isoquinoline]
Second: COc1ccc(/C=C/C2NCCc3cc(OCc4ccccc4)c(OC)cc32)cc1OCc1ccccc1 (stereo not drawn) [Example AB, 6-benzyloxy-1-[(E)-2-(3-benzyloxy-4-methoxy-phenyl)vinyl]-7-methoxy-1,2,3,4-tetrahydroisoquinoline]
The EC50 of the first is 61-fold higher: 8920 nM for the first, 146 nM for the second. The second is the more potent here.

Compared with `COc1cc2c(cc1OCc1ccccc1)CCNC2/C=C/c1nccs1` (stereo not drawn) [DV, 6-(Benzyloxy)-7-methoxy-1-[(E)-2-(1,3-thiazol-2-yl)ethenyl]-1,2,3,4-tetrahydroisoquinoline], `COc1cc2c(cc1OCc1ccccc1)CCNC2/C=C/c1cscn1` (stereo not drawn) [DR, 6-(Benzyloxy)-7-methoxy-1-[(E)-2-(1,3-thiazol-4-yl)ethenyl]-1,2,3,4-tetrahydroisoquinolin] is 6.1-fold lower in EC50: 29500 nM for the first, 4820 nM for the second. The second is the more potent here.

Going from `COc1ccc(/C=C/C2c3cc(OC)c(OCc4ccccc4)cc3CCN2C(=O)c2cnccn2)cc1OCc1ccccc1` (stereo not drawn) [Example B, [6-Benzyloxy-1-[(E)-2-(3-benzyloxy-4-methoxy-phenyl)vinyl]-7-methoxy-3,4-dihydro-1H-isoquinolin-2-yl]-pyrazin-2-yl-methanone] to `COc1cc2c(cc1OCc1ccccc1)CCNC2/C=C/c1cc(OC)c(OCc2ccccc2)c(OC)c1` (stereo not drawn) [AP, 6-Benzyloxy-1-[(E)-2-(4-benzyloxy-3,5-dimethoxy-phenyl)vinyl]-7-methoxy-1,2,3,4-tetrahydroisoquinoline], the EC50 falls from 10000 nM to 970 nM (10-fold).

First: CCOC(=O)CCCOc1cc(/C=C/C2NCCc3cc(OCc4ccccc4)c(OC)cc32)ccc1OC (stereo not drawn) [CV, Ethyl 4-[5-[(E)-2-(6-benzyloxy-7-methoxy-1,2,3,4-tetrahydroisoquinolin-1-yl)vinyl]-2-methoxy-phenoxy]butanoate]
Second: COc1ccc(/C=C/C2NCCc3cc(OCc4ccccc4)c(OC)cc32)cc1OC (stereo not drawn) [BQ, 6-Benzyloxy-1-[(E)-2-(3,4-dimethoxyphenyl)vinyl]-7-methoxy-1,2,3,4-tetrahydroisoquinoline]
The EC50 of the first is 2-fold lower: 100 nM for the first, 198 nM for the second.

Going from `COc1ccc(CCC2NCCc3cc(OC)c(OC)cc32)cc1OC` (stereo not drawn) [Example A, 1-[2-(3,4-Dimethoxyphenyl)ethyl]-6,7-dimethoxy-1,2,3,4-tetrahydroisoquinoline] to `COc1cc2c(cc1OCc1ccccc1)CCNC2/C=C/c1cc(OC)c(OC)c(OC)c1` (stereo not drawn) [Example AM, 6-Benzyloxy-7-methoxy-1-[(E)-2-(3,4,5-trimethoxyphenyl)vinyl]-1,2,3,4-tetrahydroisoquinoline], the EC50 falls from 10000 nM to 220 nM (45-fold). The second is the more potent here.

Going from `COc1cc2c(cc1OCc1ccccc1)CCNC2/C=C/c1cc2ccccc2n1C(=O)OC(C)(C)C` (stereo not drawn) [CH, tert-Butyl 2-[(E)-2-(6-benzyloxy-7-methoxy-1,2,3,4-tetrahydroisoquinolin-1-yl)vinyl]indole-1-carboxylate] to `COc1ccccc1/C=C/C1NCCc2cc(OCc3ccccc3)c(OC)cc21` (stereo not drawn) [DG, (E)-6-(benzyloxy)-7-methoxy-1-(2-methoxystyryl)-1,2,3,4-tetrahydroisoquinoline], the EC50 rises from 580 nM to 2200 nM (3.8-fold).

Compared with `COc1cc2c(cc1OCc1ccccc1)CCNC2/C=C/c1ccc(-n2ccnc2C)cc1` (stereo not drawn) [DM, (E)-6-(benzyloxy)-7-methoxy-1-(4-(2-methyl-1H-imidazol-1-yl)styryl)-1,2,3,4-tetrahydroisoquinoline], `COc1cc2c(cc1OCc1ccccc1)CCNC2/C=C/c1ccc(-n2ccnc2)cc1` (stereo not drawn) [DK, (E)-1-(4-(1H-imidazol-1-yl)styryl)-6-(benzyloxy)-7-methoxy-1,2,3,4-tetrahydroisoquinoline] is 14-fold lower in EC50: 1520 nM for the first, 107 nM for the second.

`COc1cc2c(cc1OCc1ccccc1)CCNC2/C=C/c1ccccc1C(F)(F)F` (stereo not drawn) [DA, (E)-6-(benzyloxy)-7-methoxy-1-(2-(trifluoromethyl)styryl)-1,2,3,4-tetrahydroisoquinoline] and `COc1cc2c(cc1OCc1ccccc1)CCNC2/C=C/c1ccccc1` (stereo not drawn) [BI, 6-Benzyloxy-7-methoxy-1-[(E)-styryl]-1,2,3,4-tetrahydroisoquinoline] are within 1.5-fold of each other in EC50: 2340 nM for the first, 2200 nM for the second.

Going from `COc1cc(C)c(CCC2NCCc3cc(OCc4ccccc4)c(OC)cc32)cc1OCc1ccccc1` (stereo not drawn) [Example Q, 6-benzyloxy-1-[2-(5-benzyloxy-4-methoxy-2-methyl-phenyl)ethyl]-7-methoxy-1,2,3,4-tetrahydroisoquinoline] to `COc1cc(C)c(/C=C/C2NCCc3cc(OCc4ccccc4)c(OC)cc32)cc1OCCCCN=[N+]=[N-]` (stereo not drawn) [CD, 1-[(E)-2-[5-(4-azidobutoxy)-4-methoxy-2-methyl-phenyl]vinyl]-6-benzyloxy-7-methoxy-1,2,3,4-tetrahydroisoquinoline], the EC50 falls from 1360 nM to 88 nM (15-fold).

Going from `COc1cc2c(cc1OCc1ccccc1)CCNC2/C=C/c1c[nH]c2ccccc12` (stereo not drawn) [CJ, 6-Benzyloxy-1-[(E)-2-(1H-indol-3-yl)vinyl]-7-methoxy-1,2,3,4-tetrahydroisoquinoline] to `COc1cc2c(cc1OCc1ccccc1)CCNC2/C=C/c1ccncc1` (stereo not drawn) [AW, 6-Benzyloxy-7-methoxy-1-[(E)-2-(4-pyridyl)vinyl]-1,2,3,4-tetrahydroisoquinoline], the EC50 rises from 470 nM to 3280 nM (7-fold). The first is the more potent here.

First: COc1cc(/C=C/C2NCCc3cc(OCc4ccccc4)c(OC)cc32)cc(OC)c1 (stereo not drawn) [AT, 6-Benzyloxy-1-[(E)-2-(3,5-dimethoxyphenyl)vinyl]-7-methoxy-1,2,3,4-tetrahydroisoquinoline]
Second: COc1cc2occc2cc1/C=C/C1NCCc2cc(OCc3ccccc3)c(OC)cc21 (stereo not drawn) [EB, 6-Benzyloxy-7-methoxy-1-[(E)-2-(6-methoxybenzofuran-5-yl)vinyl]-1,2,3,4-tetrahydroisoquinoline]
The EC50 of the first is 2.6-fold higher: 770 nM for the first, 300 nM for the second.

First: COc1cccc(-c2ncc(/C=C/C3NCCc4cc(OCc5ccccc5)c(OC)cc43)cn2)c1 (stereo not drawn) [DN]
Second: COc1cc2c(cc1OCc1ccccc1)CCNC2/C=C/c1ccc2cccnc2c1 (stereo not drawn) [DL, (E)-7-(2-(6-(benzyloxy)-7-methoxy-1,2,3,4-tetrahydroisoquinolin-1-yl)vinyl)quinoline]
The EC50 of the first is 25-fold higher: 2400 nM for the first, 96.9 nM for the second. The second is the more potent here.

Going from `COc1cc2c(cc1OCc1ccccc1)CCNC2/C=C/c1cc(OCC(C)(C)C)c(OC)cc1C` (stereo not drawn) [BX, 6-Benzyloxy-1-[(E)-2-[5-(2,2-dimethylpropoxy)-4-methoxy-2-methyl-phenyl]vinyl]-7-methoxy-1,2,3,4-tetrahydroisoquinoline] to `COc1cc2c(cc1OCc1ccccc1)CCNC2/C=C/c1ccccc1N1CCCCC1` (stereo not drawn) [DX, 6-(Benzyloxy)-7-methoxy-1-[(E)-2-[2-(piperidin-1-yl)phenyl]ethenyl]-1,2,3,4-tetrahydroisoquinoline], the EC50 rises from 350 nM to 4200 nM (12-fold).
